# Source: patent US12109218B2, “Compositions of grapiprant and methods for using the same” (ARATANA THERAPEUTICS, INC., priority 2014, dated 2024)
# Where two headings read alike, the source gives them in different places.
# Assays:
# [1] = test system: meniscal release model of osteoarthritis; assay: Meniscal release model of osteoarthritis in dogs (Example 8); type: in vivo
# Method: Twenty intact adult female hounds underwent surgical meniscal release of the right stifle and were maintained for at least 8 weeks to allow osteoarthritis to develop. […] Animals were randomized into three groups: negative control (n=6), positive control (n=7) treated with 5 mg/kg firocoxib daily, and grapiprant (n=7) dosed once daily at 30 mg/kg. Dosing was based on baseline bodyweight.
# Baseline physical exams, bodyweights, hematology, serum chemistry and urinalysis were obtained on study Day −1 and repeated on Day 13. Orthopedic assessments were conducted on Day −1, Day 2, Day 6, and Day 13, including a kinetics assessment using the GAITRite system to determine left hindlimb: right hindlimb ratios for peak pressure, stride length, step length, and stance time, a 5-point scale lameness evaluation, VAS assessments of right hindlimb function, right stifle pain and effusion, and comfortable range of motion measurements of both stifles using a goniometer.
# [2] = test system: Feline Onychectomy; assay: Feline onychectomy pain study FCL-12-002 (Example 9); type: in vivo, cat
# Method: This controlled, non-GLP, laboratory study used three treatment groups: Group 1 was dosed with 20-mg grapiprant-containing Formulation […] tablets the night before (about 12 hours) and 30 minutes before surgery; Group 2 was the negative control dosed with empty gelatin capsules; and Group 3 was dosed with two 20-mg grapiprant-containing Formulation […] tablets given 30 minutes before surgery. Ten adult cats were in each group. The cats were acclimated for 7 days. Cats were divided into two sequences of 15 cats each to allow for surgeries over two days. The day of surgery was considered Day 0 for that sequence. One cat from each grapiprant-treated group was removed before surgical procedures were performed. On Day -1/0 for that sequence, all animals were administered with the appropriate test article before onychectomy. All animals received a dose of butorphanol before surgery. Following Day 2 procedures, all animals were transferred to an open feline colony. Study parameters of interest included statistical analysis of recovery, sedation, analgesia scores, and clinical pathology.
# [3] = Crossover PK of tablet vs methylcellulose suspension in beagle dogs (Example 15); type: in vivo, beagle dog; conditions: for Cmax / AUC(0-t) / Tmax: both sexes, dog, serum, po; for Cmax / AUC(0-t): beagle, both sexes combined; for AUC(0-t): read-out: average AUClast
# Method: The objective of this study was to determine and compare the pharmacokinetic parameters of grapiprant in beagle dogs after single oral administration of a flavored tablet formulation and a methylcellulose suspension formulation at nominal doses of 6 mg/kg and 50 mg/kg. For this study, sixteen beagle dogs, […], were divided into two groups based on the nominal doses of grapiprant, either 6 mg/kg in Groups 3AB or 50 mg/kg in Groups 4A/B. Each group was given the appropriate oral dose in a tablet or in a methylcellulose formulation, using the crossover design as shown below at Table 19, on study Days 0 and 15. Blood samples were collected and serum was prepared, frozen, and analyzed for concentration of grapiprant.
# The vehicle was 0.5% methylcellulose (400 centipoise) in water. About half a volume of distilled water was heated to about 40-50° C. Methylcellulose was weighed to give a final concentration of 0.5% (w/v), and dissolved in the heated distilled water with stirring. The flask with the methylcellulose solution was cooled immediately. The remaining distilled water was added into the flask to adjust volume. The final solution was stirred for least 30 minutes.
# To prepare 1.2-mg/mL and 10-mg/mL suspensions grapiprant in the vehicle, an appropriate amount of grapiprant was added to a calibrated beaker containing 0.5% aqueous methylcellulose, and mixed using a vortex. The suspension was homogenized using a Polytron™ mixer with attached antifoam bit. A stir bar was added to the beaker, and the suspension was stirred for about 5 minutes. The stir bar was removed temporarily to adjust the volume, and the suspension was stirred for another 5 minutes before it was transferred to a labeled amber dosing container or glass beaker wrapped with foil.
# The dosing suspension was prepared fresh on each day of dosing. A vortex depth of between 75% and 100% of the depth of the container containing the 500-mg suspension was achieved on both dosing days. […] Dose formulation samples were transported to the animal room before collection and were collected (while the formulations were being stirred) just before dosing the first animal of each group, and just before dosing the last animal of each group. These steps guard against the 500-mg suspension settling during transport from the formulation laboratory to the animal room.
# [4] = test system: thermal hyperalgesia induced by intraplantar injection of PGE2; conditions: oral administration; cited from earlier work
# [5] = test system: mechanical hyperalgesia induced by carrageenan model; conditions: cited from earlier work
# [6] = test system: other human prostanoid receptor subtypes; conditions: cited from earlier work
# [7] = 9-month oral toxicity study in dogs with 4-week recovery (Example 7)
# Method: Four animals per sex were used in each dose group and two additional animals per sex in the 50 mg/kg dose group for recovery purposes. Clinical signs and food consumption were assessed daily. Bodyweight was recorded weekly. Ophthalmologic examination was performed on Weeks 20 and 38 of the dosing phase and Week 4 of the recovery phase. Electrocardiograms were recorded on Weeks 13, 26, and 38 of the dosing phase and Week 4 of the recovery phase. Hematology, coagulation, and serum chemistry parameters were monitored on Weeks 13, 26, and 39 of the dosing phase and Week 4 or 5 of the recovery phase. Urinalyses were performed on Week 37 of the dosing phase and Week 3 or 4 of the recovery phase. […] At the end of the dosing or recovery period, dogs were euthanized and necropsied. After gross examination, selected organs were weighed, and a comprehensive set of tissues was collected and processed for microscopic examination.
# [8] = cats, 20-mg Formulation A34 tablets before onychectomy, vs placebo control
# [9] = 60 mg, beagle dogs, Day 0, 60-mg suspension
# [10] = 60 mg, beagle dogs, Day 0, 60-mg tablet
# [11] = 60 mg, beagle dogs, Day 15, 60-mg suspension
# [12] = 60 mg, beagle dogs, Day 15, 60-mg tablet
# [13] = 500 mg, beagle dogs, Day 0, 500-mg suspension
# [14] = 500 mg, beagle dogs, Day 0, 500-mg tablet
# [15] = 500 mg, beagle dogs, Day 15, 500-mg suspension
# [16] = 500 mg, beagle dogs, Day 15, 500-mg tablet
smiles,measurement,setting,value
"CCc1nc2c(C)nc(C)cc2n1-c1ccc(CCNC(=O)NS(=O)(=O)c2ccc(C)cc2)cc1 [grapiprant, N-{2-[4-(2-ethyl-4,6-dimethyl-1H-imidazo[4,5-c]pyridin-1-yl)phenyl]ethyl}-N′-[(4-methylphenyl)sulfonyl]urea]",safety,[1]; 30 mg/kg,considered safe for at least a 14-day treatment period
same,lameness scores,[1]; 30 mg/kg once daily,lower lameness scores in the grapiprant treated group on Day 2 compared to the negative and positive control groups
same,pain scores,[1]; 30 mg/kg once daily,statistically significant lower pain scores on Days 2 and 6 compared to baseline
same,"serum total protein, albumin, and globulin",[1]; 30 mg/kg once daily,"decreases in mean total protein, albumin, and globulin"
same,amelioration of lameness and pain,[1]; 30 mg/kg over 14 days,effective at day 2 in ameliorating lameness and pain
same,comparison of dosing regimens,[2]; Group 1 (about 12 hours and 30 minutes before surgery) vs Group 3 (two tablets 30 minutes before surgery),dosing the cats with grapiprant the night before surgery was more effective
same,pain interventions,[2]; both groups of grapiprant treated animals,fewer pain interventions than placebo control
same,analgesia scores,[2]; [8],decreased analgesia scores (reduced pain)
same,sedation scores,[2]; [8],without an apparent effect on sedation scores
same,fecal abnormalities,"[3]; beagle dogs, single oral 60 mg or 500 mg",Slight increases in the incidence of fecal abnormalities
same,relative bioavailability ratio (tablet/suspension),"[3]; both dose levels, both trials",greater than 100
same,Cmax,[3]; [9],4050 ng/mL
same,AUC(0-t),[3]; [9],14.5 µg·h/mL
same,Cmax,[3]; [10],5330 ng/mL
same,AUC(0-t),[3]; [10],19.6 µg·h/mL
same,Cmax,[3]; [11],3810 ng/mL
same,AUC(0-t),[3]; [11],12.5 µg·h/mL
same,Cmax,[3]; [12],6110 ng/mL
same,AUC(0-t),[3]; [12],17.4 µg·h/mL
same,Cmax,[3]; [13],76800 ng/mL
same,AUC(0-t),[3]; [13],293 µg·h/mL
same,Cmax,[3]; [14],96100 ng/mL
same,AUC(0-t),[3]; [14],455 µg·h/mL
same,Cmax,[3]; [15],74200 ng/mL
same,AUC(0-t),[3]; [15],209 µg·h/mL
same,Cmax,[3]; [16],101000 ng/mL
same,AUC(0-t),[3]; [16],430 µg·h/mL
same,Tmax,"[3]; beagle dogs, Day 0, 60-mg methylcellulose suspension",1 h
same,Tmax,"[3]; beagle dogs, Day 15, 500-mg suspension",1 h
same,"ED50, reduction of thermal hyperalgesia",[4],12.8 mg/kg
same,effect on mechanical hyperalgesia,[5],significantly reduces mechanical hyperalgesia
same,selectivity for EP4 over other human prostanoid receptor subtypes,[6],highly selective for the EP4 receptor over other human prostanoid receptor subtypes
same,decrease in mean albumin/globulin (A/G) ratio,"[7]; 6 mg/kg, Week 39",−16%
same,histopathological finding,[7]; 50 mg/kg,mild regeneration of the mucosal epithelium of the ileum in one male
same,decrease in mean serum albumin vs. control value,"[7]; 50 mg/kg, Weeks 26 and 39",up to −14%
same,accumulation,"[7]; 1, 6, and 50 mg/kg/day dosing regimen",no accumulation of grapiprant was observed
same,level with no observed adverse effects,"[7]; Beagle dogs, oral once daily, nine months",6 mg/kg
same,individual decrease in albumin vs. pre-study,"[7]; dose-related trend, 1-50 mg/kg",up to −41%
same,individual decrease in calcium,"[7]; dose-related trend, 1-50 mg/kg",up to −18%
same,individual decrease in total protein,"[7]; dose-related trend, 1-50 mg/kg",up to −30%
